Measurements as given in paper PMC3388095, “Fluorophore Labeled Kinase Detects Ligands That Bind within the MAPK Insert of p38α Kinase” (PLoS ONE, 2012).

Columns and labels:
Assay in all cases: Kinase selectivity profile, 33P-ATP filter-binding assay
Type in all cases: biochemical
[1] = biological target: p38α MAPK (Homo sapiens, UniProt Q16539)
Experimental: (§1) Figure 5 Kinase selectivity profile of 1b. Compound 1b was profiled against a selected panel of 95 different kinases at a concentration of 10 µM employing a radioactive (^33P-ATP) filter-binding assay (National Centre for Protein Kinase Profiling, Dundee). The numbers represent the remaining kinase activity in %. […] TEXT PRINTED IN THE PICTURE: no label printed: Aurora B: 53; MNK2: 67; MINK1: 69; HER4: 71; MKK1: 75; PKBβ: 75; PHK: 76; PIM2: 76; PIM3: 77; CHK2: 78; PKD1: 79; TBK1: 79; PAK4: 80; Lck: 80; GSK3β: 80; IGF-1R: 81; p38δ MAPK: 81; PIM1: 82; SRPK1: 83; SmMLCK: 83; MAPKAP-K3: 84; EPH A2: 85; MELK: 85; CK2: 85; CK1: 86; CAMK1: 86; PLK1: 87; MST2: 87; IR-HIS: 87; BTK: 87; HIPK1: 87; p38α MAPK: 88; DYRK2: 88; JNK3: 88; PAK5: 88; IKKε: 89; p38β MAPK: 89; NUAK1: 90; PAK2: 90; MNK1: 91; ERK8: 91; GCK: 91; PRAK: 91; MLK1: 92; SGK1: 92; PAK6: 92; TTK: 92; BRSK2: 92; MARK4: 93; CHK1: 93; RIPK2: 94; CDK2-Cyclin A: 94; JNK1: 94; AMPK: 94; VEG-FR: 95; DYRK1A: 95; CAMKKβ: 95; PKCα: 96; S6K1: 96; MSK1: 96; PKCz: 96; YES1: 96; RSK1: 97; IRAK4: 97; DYRK3: 97; IKKβ: 97; ERK2: 98; MLK3: 98; RSK2: 98; LKB1: 98; MAPKAP-K2: 98; ERK1: 99; FGF-R1: 99; SYK: 99; MST4: 99; MARK3: 99; MARK2: 100; PDK1: 100; JNK2: 101; HIPK2: 101; BRSK1: 102; EF2K: 102; PRK2: 103; Aurora A: 104; IRR: 104; CSK: 104; PKA: 104; NEK6: 105; p38γ MAPK: 105; Src: 107; PKBα: 109; ROCK 2: 109; EPH-B3: 112; HIPK3: 115; NEK2α: 119 DOUBTS OF THE COPYIST ABOUT THIS PICTURE: The picture prints no compound label and no measure or unit for the numbers; only the colour scale 'Inhibition weak/strong' is printed. / PKCz: the last letter may be z or ζ / NEK2α: the last letter may be a or α / IKKε: the last letter may be ε or e

[2] = biological target: NUAK1 (Homo sapiens, UniProt O60285)
Experimental: as §1

[3] = biological target: MAPKAP-K2 (Homo sapiens, UniProt P49137)
Experimental: as §1

[4] = biological target: SmMLCK (Homo sapiens, UniProt Q15746)
Experimental: as §1

[5] = biological target: TTK (Homo sapiens, UniProt P33981)
Experimental: as §1

[6] = biological target: MARK3 (Homo sapiens, UniProt P27448)
Experimental: as §1

[7] = biological target: BRSK1 (Homo sapiens, UniProt Q8TDC3)
Experimental: as §1

[8] = biological target: HIPK3 (Homo sapiens, UniProt Q9H422)
Experimental: as §1

[9] = biological target: CDK2-Cyclin A (Homo sapiens, UniProt P24941)
Experimental: as §1

[10] = biological target: JNK1 (Homo sapiens, UniProt P45983)
Experimental: as §1

[11] = biological target: FGF-R1 (Homo sapiens, UniProt P11362)
Experimental: as §1

[12] = biological target: ERK2 (Homo sapiens, UniProt P28482)
Experimental: as §1

[13] = biological target: PAK5 (Homo sapiens, UniProt Q9P286)
Experimental: as §1

[14] = biological target: Aurora A (Homo sapiens, UniProt O14965)
Experimental: as §1

[15] = biological target: CK1 (Homo sapiens, UniProt P48730)
Experimental: as §1

[16] = biological target: PKA (Homo sapiens, UniProt P17612)
Experimental: as §1

[17] = biological target: Lck (Homo sapiens, UniProt P06239)
Experimental: as §1

[18] = biological target: MINK1 (Homo sapiens, UniProt Q8N4C8)
Experimental: as §1

[19] = biological target: BTK (Homo sapiens, UniProt Q06187)
Experimental: as §1

[20] = biological target: HIPK2 (Homo sapiens, UniProt Q9H2X6)
Experimental: as §1

[21] = biological target: VEG-FR (Homo sapiens, UniProt P17948)
Experimental: as §1

[22] = biological target: p38γ MAPK (Homo sapiens, UniProt P53778)
Experimental: as §1

[23] = biological target: CSK (Homo sapiens, UniProt P41240)
Experimental: as §1

[24] = biological target: MELK (Homo sapiens, UniProt Q14680)
Experimental: as §1

[25] = biological target: MNK2 (Homo sapiens, UniProt Q9HBH9)
Experimental: as §1

[26] = biological target: DYRK1A (Homo sapiens, UniProt Q13627)
Experimental: as §1

[27] = biological target: TBK1 (Homo sapiens, UniProt Q9UHD2)
Experimental: as §1

Sequence of VEG-FR (P17948 27-1338): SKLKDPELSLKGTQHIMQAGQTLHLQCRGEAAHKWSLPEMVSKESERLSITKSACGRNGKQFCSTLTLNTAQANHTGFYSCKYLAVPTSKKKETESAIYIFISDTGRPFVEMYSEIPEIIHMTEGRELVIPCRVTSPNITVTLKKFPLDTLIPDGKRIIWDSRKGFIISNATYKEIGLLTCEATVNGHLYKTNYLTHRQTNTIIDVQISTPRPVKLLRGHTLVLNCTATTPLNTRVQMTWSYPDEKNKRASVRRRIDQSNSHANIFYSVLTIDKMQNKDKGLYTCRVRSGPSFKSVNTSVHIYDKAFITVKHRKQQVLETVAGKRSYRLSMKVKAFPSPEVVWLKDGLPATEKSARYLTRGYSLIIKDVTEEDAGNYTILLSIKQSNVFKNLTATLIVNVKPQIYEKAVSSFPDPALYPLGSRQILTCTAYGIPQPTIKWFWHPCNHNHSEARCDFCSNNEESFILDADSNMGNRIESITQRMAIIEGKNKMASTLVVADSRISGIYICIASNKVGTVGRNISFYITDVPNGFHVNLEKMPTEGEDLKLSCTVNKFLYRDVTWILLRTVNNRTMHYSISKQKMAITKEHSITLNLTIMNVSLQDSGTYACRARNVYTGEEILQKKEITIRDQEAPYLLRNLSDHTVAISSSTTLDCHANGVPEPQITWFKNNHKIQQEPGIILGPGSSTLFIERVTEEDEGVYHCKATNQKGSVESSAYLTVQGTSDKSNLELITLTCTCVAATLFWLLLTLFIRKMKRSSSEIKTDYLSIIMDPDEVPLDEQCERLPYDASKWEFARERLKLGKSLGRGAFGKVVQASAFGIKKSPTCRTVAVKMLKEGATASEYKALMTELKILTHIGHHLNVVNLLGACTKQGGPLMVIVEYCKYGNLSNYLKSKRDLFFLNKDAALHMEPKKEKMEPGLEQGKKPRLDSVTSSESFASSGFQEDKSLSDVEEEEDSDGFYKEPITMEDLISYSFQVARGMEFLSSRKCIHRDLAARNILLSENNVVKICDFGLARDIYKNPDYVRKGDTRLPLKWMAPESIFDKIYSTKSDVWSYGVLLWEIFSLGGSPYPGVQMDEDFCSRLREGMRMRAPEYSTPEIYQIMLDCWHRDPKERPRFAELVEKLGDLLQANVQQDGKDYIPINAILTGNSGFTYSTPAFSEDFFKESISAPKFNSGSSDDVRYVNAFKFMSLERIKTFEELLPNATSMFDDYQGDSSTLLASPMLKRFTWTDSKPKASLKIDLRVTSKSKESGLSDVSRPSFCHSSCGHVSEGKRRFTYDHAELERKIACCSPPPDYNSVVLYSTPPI
Sequence of PAK5 (Q9P286 whole entry): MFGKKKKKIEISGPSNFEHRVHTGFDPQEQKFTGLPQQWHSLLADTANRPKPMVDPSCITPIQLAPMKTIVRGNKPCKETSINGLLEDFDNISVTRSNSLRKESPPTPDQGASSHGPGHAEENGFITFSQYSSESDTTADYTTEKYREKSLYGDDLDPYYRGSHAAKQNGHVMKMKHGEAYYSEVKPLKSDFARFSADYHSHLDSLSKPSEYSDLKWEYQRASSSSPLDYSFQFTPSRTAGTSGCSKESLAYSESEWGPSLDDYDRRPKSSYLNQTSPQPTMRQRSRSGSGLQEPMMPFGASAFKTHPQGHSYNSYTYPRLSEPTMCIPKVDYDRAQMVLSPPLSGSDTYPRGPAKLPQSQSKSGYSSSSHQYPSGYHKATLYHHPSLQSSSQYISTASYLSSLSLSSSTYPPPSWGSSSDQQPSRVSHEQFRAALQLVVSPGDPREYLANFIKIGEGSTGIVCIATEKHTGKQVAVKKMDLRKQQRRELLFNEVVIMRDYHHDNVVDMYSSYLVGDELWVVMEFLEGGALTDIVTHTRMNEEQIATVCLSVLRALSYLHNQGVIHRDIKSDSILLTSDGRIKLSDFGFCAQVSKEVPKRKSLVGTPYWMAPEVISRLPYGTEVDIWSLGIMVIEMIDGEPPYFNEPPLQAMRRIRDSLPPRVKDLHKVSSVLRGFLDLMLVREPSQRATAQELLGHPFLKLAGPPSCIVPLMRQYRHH
Sequence of JNK1 (P45983 whole entry): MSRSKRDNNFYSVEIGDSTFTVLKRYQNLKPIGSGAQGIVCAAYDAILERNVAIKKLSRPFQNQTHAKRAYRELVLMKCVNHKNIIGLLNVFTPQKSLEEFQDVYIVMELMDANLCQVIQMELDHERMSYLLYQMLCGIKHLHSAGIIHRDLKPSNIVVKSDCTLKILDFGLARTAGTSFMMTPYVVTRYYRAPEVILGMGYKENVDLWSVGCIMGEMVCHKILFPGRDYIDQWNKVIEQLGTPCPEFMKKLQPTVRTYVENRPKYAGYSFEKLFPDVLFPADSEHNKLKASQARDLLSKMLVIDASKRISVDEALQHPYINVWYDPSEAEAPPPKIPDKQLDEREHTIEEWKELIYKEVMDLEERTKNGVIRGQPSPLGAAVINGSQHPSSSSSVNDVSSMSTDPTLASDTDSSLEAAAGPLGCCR
Sequence of BTK (Q06187 whole entry): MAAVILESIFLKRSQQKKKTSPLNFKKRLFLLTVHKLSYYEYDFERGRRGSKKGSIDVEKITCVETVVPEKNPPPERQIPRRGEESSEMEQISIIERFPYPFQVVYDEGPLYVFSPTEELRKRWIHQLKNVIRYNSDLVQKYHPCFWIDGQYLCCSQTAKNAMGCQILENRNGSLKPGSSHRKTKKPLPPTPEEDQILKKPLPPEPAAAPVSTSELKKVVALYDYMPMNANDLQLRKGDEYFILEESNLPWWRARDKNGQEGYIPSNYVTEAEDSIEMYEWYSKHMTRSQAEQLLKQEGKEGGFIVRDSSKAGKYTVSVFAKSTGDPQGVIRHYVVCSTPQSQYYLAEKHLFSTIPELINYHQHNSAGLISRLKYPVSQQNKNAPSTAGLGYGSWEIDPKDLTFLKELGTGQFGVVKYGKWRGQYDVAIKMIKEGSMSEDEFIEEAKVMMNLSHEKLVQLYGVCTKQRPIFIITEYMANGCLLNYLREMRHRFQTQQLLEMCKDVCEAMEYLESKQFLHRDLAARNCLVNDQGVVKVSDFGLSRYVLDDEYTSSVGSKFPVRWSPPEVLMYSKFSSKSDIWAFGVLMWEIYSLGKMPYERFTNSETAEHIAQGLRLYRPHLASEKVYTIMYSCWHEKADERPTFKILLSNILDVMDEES
Sequence of SmMLCK (Q15746 923-1914): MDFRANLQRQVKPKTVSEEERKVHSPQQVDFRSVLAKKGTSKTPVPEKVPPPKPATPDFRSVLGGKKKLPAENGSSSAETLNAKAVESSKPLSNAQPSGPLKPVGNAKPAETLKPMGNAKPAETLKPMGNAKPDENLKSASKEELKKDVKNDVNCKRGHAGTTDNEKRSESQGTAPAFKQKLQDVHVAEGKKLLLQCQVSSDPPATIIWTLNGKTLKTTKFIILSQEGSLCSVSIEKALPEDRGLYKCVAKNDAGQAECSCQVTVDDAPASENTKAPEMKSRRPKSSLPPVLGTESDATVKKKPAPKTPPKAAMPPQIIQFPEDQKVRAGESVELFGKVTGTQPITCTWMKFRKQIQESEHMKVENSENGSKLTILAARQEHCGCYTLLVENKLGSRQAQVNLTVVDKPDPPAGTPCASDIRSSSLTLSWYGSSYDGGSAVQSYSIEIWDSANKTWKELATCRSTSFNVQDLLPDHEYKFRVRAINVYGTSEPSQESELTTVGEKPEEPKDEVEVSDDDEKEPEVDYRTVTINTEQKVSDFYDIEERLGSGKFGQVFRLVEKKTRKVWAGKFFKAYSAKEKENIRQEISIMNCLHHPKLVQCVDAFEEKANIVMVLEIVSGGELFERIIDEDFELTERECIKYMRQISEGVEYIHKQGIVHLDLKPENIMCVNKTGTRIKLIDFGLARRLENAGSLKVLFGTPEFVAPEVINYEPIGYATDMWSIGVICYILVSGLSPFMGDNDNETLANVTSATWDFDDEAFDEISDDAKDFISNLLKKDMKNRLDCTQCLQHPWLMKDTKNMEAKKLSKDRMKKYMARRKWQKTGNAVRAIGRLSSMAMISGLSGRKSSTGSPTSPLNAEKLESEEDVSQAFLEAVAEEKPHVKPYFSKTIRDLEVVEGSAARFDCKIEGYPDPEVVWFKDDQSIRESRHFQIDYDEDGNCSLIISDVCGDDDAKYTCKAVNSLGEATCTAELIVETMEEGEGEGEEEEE
Sequence of MNK2 (Q9HBH9 whole entry): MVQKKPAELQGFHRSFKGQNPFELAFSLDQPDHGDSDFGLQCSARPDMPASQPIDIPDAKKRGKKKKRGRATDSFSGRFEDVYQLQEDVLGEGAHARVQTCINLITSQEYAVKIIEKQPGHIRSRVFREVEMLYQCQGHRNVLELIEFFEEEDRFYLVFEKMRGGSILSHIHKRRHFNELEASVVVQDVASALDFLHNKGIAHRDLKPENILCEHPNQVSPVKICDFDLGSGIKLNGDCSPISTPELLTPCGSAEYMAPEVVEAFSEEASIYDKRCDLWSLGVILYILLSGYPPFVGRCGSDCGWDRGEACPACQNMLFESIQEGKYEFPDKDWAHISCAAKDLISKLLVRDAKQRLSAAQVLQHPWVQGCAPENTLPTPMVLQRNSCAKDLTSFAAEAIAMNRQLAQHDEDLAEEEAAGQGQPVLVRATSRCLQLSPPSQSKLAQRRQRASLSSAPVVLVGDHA
Sequence of MAPKAP-K2 (P49137 whole entry): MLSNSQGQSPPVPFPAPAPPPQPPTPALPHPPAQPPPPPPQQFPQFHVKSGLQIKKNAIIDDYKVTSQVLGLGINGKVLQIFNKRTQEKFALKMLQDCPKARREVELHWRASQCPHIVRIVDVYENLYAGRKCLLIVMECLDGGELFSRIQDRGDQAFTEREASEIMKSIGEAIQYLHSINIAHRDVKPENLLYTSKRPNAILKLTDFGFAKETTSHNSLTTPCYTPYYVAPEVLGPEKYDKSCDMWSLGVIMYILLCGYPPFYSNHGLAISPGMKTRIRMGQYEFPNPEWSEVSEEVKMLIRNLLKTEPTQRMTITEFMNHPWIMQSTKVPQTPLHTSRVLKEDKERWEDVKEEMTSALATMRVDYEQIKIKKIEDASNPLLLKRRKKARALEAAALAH

Nc1ccc2c(NC3CC3)nc(-c3ccccc3)nc2c1 [1b, N^4-Cyclopropyl-2-phenyl-4,7-quinazolinediamine]
remaining activity at 10 µM [1]: 88%
remaining activity at 10 µM [2]: 90%
remaining activity at 10 µM [3]: 98%
remaining activity at 10 µM [4]: 83%
remaining activity at 10 µM [5]: 92%
remaining activity at 10 µM [6]: 99%
remaining activity at 10 µM [7]: 102%
remaining activity at 10 µM [8]: 115%
remaining activity at 10 µM [9]: 94%
remaining activity at 10 µM [10]: 94%
remaining activity at 10 µM [11]: 99%
remaining activity at 10 µM [12]: 98%
remaining activity at 10 µM [13]: 88%
remaining activity at 10 µM [14]: 104%
remaining activity at 10 µM [15]: 86%
remaining activity at 10 µM [16]: 104%
remaining activity at 10 µM [17]: 80%
remaining activity at 10 µM [18]: 69%
remaining activity at 10 µM [19]: 87%
remaining activity at 10 µM [20]: 101%
remaining activity at 10 µM [21]: 95%
remaining activity at 10 µM [22]: 105%
remaining activity at 10 µM [23]: 104%
remaining activity at 10 µM [24]: 85%
remaining activity at 10 µM [25]: 67%
remaining activity at 10 µM [26]: 95%
remaining activity at 10 µM [27]: 79%
